What was measured:
Assay in all cases: Post-emergent Test III, herbicidal activity in wheat and barley
Assay type in all cases: in vivo
[1] = test system: MATSS: scented mayweed (Matricaria chamomilla), pineappleweed (Matricaria matricarioides); conditions: 21 days after application; for GR50 MATSS / GR80 MATSS: probit analysis; for GR50 MATSS: dose for 50 percent growth reduction; for GR80 MATSS: dose for 80 percent growth reduction
How it was run: (§1)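 GR20, GR50, GR80 and GR90 come from probit analysis of visual injury scores (0 = none, 100 = complete kill) taken 21 d after treatment. Foliar application was by track sprayer delivering 187 L/ha at five rates, from high down to 1/16×, onto greenhouse plants at the 2–3 leaf stage, with solvent-blank controls.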

[2] = test system: HORSS: barley, including spring and winter (Hordeum vulgare); conditions: 21 days after application; for GR20 HORSS: probit analysis, dose for 20 percent growth reduction (crop)
How it was run: as §1

[3] = test system: KCHSC: kochia (Kochia scoparia); conditions: 21 days after application; for GR50 KCHSC / GR80 KCHSC: probit analysis; for GR50 KCHSC: dose for 50 percent growth reduction; for GR80 KCHSC: dose for 80 percent growth reduction
How it was run: as §1

[4] = test system: VERPE: bird's-eye speedwell (veronica persica); conditions: 21 days after application; for GR50 VERPE / GR80 VERPE: probit analysis; for GR50 VERPE: dose for 50 percent growth reduction; for GR80 VERPE: dose for 80 percent growth reduction
How it was run: as §1

[5] = test system: SASKR: Russian thistle (Salsola iberica); conditions: 21 days after application; for GR50 SASKR / GR80 SASKR: probit analysis; for GR50 SASKR: dose for 50 percent growth reduction; for GR80 SASKR: dose for 80 percent growth reduction
How it was run: as §1

[6] = test system: VIOSS: wild pansy (Viola tricolor), field violet (Viola arvensis); conditions: 21 days after application; for GR50 VIOSS / GR80 VIOSS: probit analysis; for GR50 VIOSS: dose for 50 percent growth reduction; for GR80 VIOSS: dose for 80 percent growth reduction
How it was run: as §1

[7] = test system: TRZSS: wheat, including spring and winter (Triticum aestivum); conditions: 21 days after application; for GR20 TRZSS: probit analysis, dose for 20 percent growth reduction (crop)
How it was run: as §1

COC(=O)c1nc(-c2ccc(I)c(F)c2)c(F)c(N)c1Cl [Compound 132]
pest or weed control at 35 g/ha ([1]; Matricaria chamomilla, post-emergence, 504 h, 35 g ai/ha, read-out: Visual Gorowth Reduction (%) 21 days After Application MATSS): 0 to 29% | pest or weed control at 70 g/ha ([1]; Matricaria chamomilla, post-emergence, 504 h, 70 g ai/ha, read-out: Visual Gorowth Reduction (%) 21 days After Application MATSS): 30 to 44% | pest or weed control at 140 g/ha ([1]; Matricaria chamomilla, post-emergence, 504 h, 140 g ai/ha, read-out: Visual Gorowth Reduction (%) 21 days After Application MATSS): 30 to 44% | GR50 MATSS [1]: >140 g ai/ha | GR80 MATSS [1]: >140 g ai/ha | pest or weed control at 35 g/ha ([2]; Hordeum vulgare, post-emergence, 504 h, 35 g ai/ha, read-out: Visual Gorowth Reduction (%) 21 days After Application HORSS): 60 to 74% | pest or weed control at 70 g/ha ([2]; Hordeum vulgare, post-emergence, 504 h, 70 g ai/ha, read-out: Visual Gorowth Reduction (%) 21 days After Application HORSS): 75 to 84% | pest or weed control at 140 g/ha ([2]; Hordeum vulgare, post-emergence, 504 h, 140 g ai/ha, read-out: Visual Gorowth Reduction (%) 21 days After Application HORSS): 95 to 100% | GR20 HORSS [2]: 9 g ai/ha | pest or weed control at 35 g/ha ([3]; Bassia scoparia, post-emergence, 504 h, 35 g ai/ha, read-out: Visual Gorowth Reduction (%) 21 days After Application KCHSC): 85 to 94% | pest or weed control at 70 g/ha ([3]; Bassia scoparia, post-emergence, 504 h, 70 g ai/ha, read-out: Visual Gorowth Reduction (%) 21 days After Application KCHSC): 85 to 94% | pest or weed control at 140 g/ha ([3]; Bassia scoparia, post-emergence, 504 h, 140 g ai/ha, read-out: Visual Gorowth Reduction (%) 21 days After Application KCHSC): 95 to 100% | GR50 KCHSC [3]: 4 g ai/ha | GR80 KCHSC [3]: 20 g ai/ha | pest or weed control at 35 g/ha ([4]; Veronica persica, post-emergence, 504 h, 35 g ai/ha, read-out: Visual Gorowth Reduction (%) 21 days After Application VERPE): 0 to 29% | pest or weed control at 70 g/ha ([4]; Veronica persica, post-emergence, 504 h, 70 g ai/ha, read-out: Visual Gorowth Reduction (%) 21 days After Application VERPE): 75 to 84% | pest or weed control at 140 g/ha ([4]; Veronica persica, post-emergence, 504 h, 140 g ai/ha, read-out: Visual Gorowth Reduction (%) 21 days After Application VERPE): 85 to 94% | GR50 VERPE [4]: 58 g ai/ha | GR80 VERPE [4]: 99 g ai/ha | pest or weed control at 35 g/ha ([5]; Salsola tragus, post-emergence, 504 h, 35 g ai/ha, read-out: Visual Gorowth Reduction (%) 21 days After Application SASKR): 75 to 84% | pest or weed control at 70 g/ha ([5]; Salsola tragus, post-emergence, 504 h, 70 g ai/ha, read-out: Visual Gorowth Reduction (%) 21 days After Application SASKR): 75 to 84% | pest or weed control at 140 g/ha ([5]; Salsola tragus, post-emergence, 504 h, 140 g ai/ha, read-out: Visual Gorowth Reduction (%) 21 days After Application SASKR): 75 to 84% | GR50 SASKR [5]: 1 g ai/ha | GR80 SASKR [5]: 66 g ai/ha | pest or weed control at 35 g/ha ([6]; Viola tricolor, post-emergence, 504 h, 35 g ai/ha, read-out: Visual Gorowth Reduction (%) 21 days After Application VIOSS): 95 to 100% | pest or weed control at 70 g/ha ([6]; Viola tricolor, post-emergence, 504 h, 70 g ai/ha, read-out: Visual Gorowth Reduction (%) 21 days After Application VIOSS): 95 to 100% | pest or weed control at 140 g/ha ([6]; Viola tricolor, post-emergence, 504 h, 140 g ai/ha, read-out: Visual Gorowth Reduction (%) 21 days After Application VIOSS): 95 to 100% | GR50 VIOSS [6]: 9 g ai/ha | GR80 VIOSS [6]: 17 g ai/ha | pest or weed control at 35 g/ha ([7]; Triticum aestivum, post-emergence, 504 h, 35 g ai/ha, read-out: Visual Gorowth Reduction (%) 21 days After Application TRZSS): 60 to 74% | pest or weed control at 70 g/ha ([7]; Triticum aestivum, post-emergence, 504 h, 70 g ai/ha, read-out: Visual Gorowth Reduction (%) 21 days After Application TRZSS): 60 to 74% | pest or weed control at 140 g/ha ([7]; Triticum aestivum, post-emergence, 504 h, 140 g ai/ha, read-out: Visual Gorowth Reduction (%) 21 days After Application TRZSS): 75 to 84% | GR20 TRZSS [7]: 10 g ai/ha

Nc1c(F)c(-c2ccc(I)cc2F)nc(C(=O)O)c1Cl [Compound 169]
pest or weed control at 37.1 g/ha ([1]; Matricaria chamomilla, post-emergence, 504 h, 37.1 g ai/ha, read-out: Visual Gorowth Reduction (%) 21 days After Application MATSS): 75 to 84% | pest or weed control at 74.3 g/ha ([1]; Matricaria chamomilla, post-emergence, 504 h, 74.3 g ai/ha, read-out: Visual Gorowth Reduction (%) 21 days After Application MATSS): 95 to 100% | pest or weed control at 149 g/ha ([1]; Matricaria chamomilla, post-emergence, 504 h, 149 g ai/ha, read-out: Visual Gorowth Reduction (%) 21 days After Application MATSS): 95 to 100% | GR50 MATSS [1]: 15 g ai/ha | GR80 MATSS [1]: 35 g ai/ha | pest or weed control at 37.1 g/ha ([2]; Hordeum vulgare, post-emergence, 504 h, 37.1 g ai/ha, read-out: Visual Gorowth Reduction (%) 21 days After Application HORSS): 95 to 100% | pest or weed control at 74.3 g/ha ([2]; Hordeum vulgare, post-emergence, 504 h, 74.3 g ai/ha, read-out: Visual Gorowth Reduction (%) 21 days After Application HORSS): 95 to 100% | pest or weed control at 149 g/ha ([2]; Hordeum vulgare, post-emergence, 504 h, 149 g ai/ha, read-out: Visual Gorowth Reduction (%) 21 days After Application HORSS): 95 to 100% | GR20 HORSS [2]: 1 g ai/ha | pest or weed control at 37.1 g/ha ([3]; Bassia scoparia, post-emergence, 504 h, 37.1 g ai/ha, read-out: Visual Gorowth Reduction (%) 21 days After Application KCHSC): 60 to 74% | pest or weed control at 74.3 g/ha ([3]; Bassia scoparia, post-emergence, 504 h, 74.3 g ai/ha, read-out: Visual Gorowth Reduction (%) 21 days After Application KCHSC): 85 to 94% | pest or weed control at 149 g/ha ([3]; Bassia scoparia, post-emergence, 504 h, 149 g ai/ha, read-out: Visual Gorowth Reduction (%) 21 days After Application KCHSC): 85 to 94% | GR50 KCHSC [3]: 8 g ai/ha | GR80 KCHSC [3]: 72 g ai/ha | pest or weed control at 37.1 g/ha ([4]; Veronica persica, post-emergence, 504 h, 37.1 g ai/ha, read-out: Visual Gorowth Reduction (%) 21 days After Application VERPE): 85 to 94% | pest or weed control at 74.3 g/ha ([4]; Veronica persica, post-emergence, 504 h, 74.3 g ai/ha, read-out: Visual Gorowth Reduction (%) 21 days After Application VERPE): 95 to 100% | pest or weed control at 149 g/ha ([4]; Veronica persica, post-emergence, 504 h, 149 g ai/ha, read-out: Visual Gorowth Reduction (%) 21 days After Application VERPE): 95 to 100% | GR50 VERPE [4]: 19 g ai/ha | GR80 VERPE [4]: 37 g ai/ha | pest or weed control at 37.1 g/ha ([5]; Salsola tragus, post-emergence, 504 h, 37.1 g ai/ha, read-out: Visual Gorowth Reduction (%) 21 days After Application SASKR): 60 to 74% | pest or weed control at 74.3 g/ha ([5]; Salsola tragus, post-emergence, 504 h, 74.3 g ai/ha, read-out: Visual Gorowth Reduction (%) 21 days After Application SASKR): 75 to 84% | pest or weed control at 149 g/ha ([5]; Salsola tragus, post-emergence, 504 h, 149 g ai/ha, read-out: Visual Gorowth Reduction (%) 21 days After Application SASKR): 85 to 94% | GR50 SASKR [5]: 5 g ai/ha | GR80 SASKR [5]: 83 g ai/ha | pest or weed control at 37.1 g/ha ([6]; Viola tricolor, post-emergence, 504 h, 37.1 g ai/ha, read-out: Visual Gorowth Reduction (%) 21 days After Application VIOSS): 75 to 84% | pest or weed control at 74.3 g/ha ([6]; Viola tricolor, post-emergence, 504 h, 74.3 g ai/ha, read-out: Visual Gorowth Reduction (%) 21 days After Application VIOSS): 95 to 100% | pest or weed control at 149 g/ha ([6]; Viola tricolor, post-emergence, 504 h, 149 g ai/ha, read-out: Visual Gorowth Reduction (%) 21 days After Application VIOSS): 95 to 100% | GR50 VIOSS [6]: 21 g ai/ha | GR80 VIOSS [6]: 36 g ai/ha | pest or weed control at 37.1 g/ha ([7]; Triticum aestivum, post-emergence, 504 h, 37.1 g ai/ha, read-out: Visual Gorowth Reduction (%) 21 days After Application TRZSS): 75 to 84% | pest or weed control at 74.3 g/ha ([7]; Triticum aestivum, post-emergence, 504 h, 74.3 g ai/ha, read-out: Visual Gorowth Reduction (%) 21 days After Application TRZSS): 85 to 94% | pest or weed control at 149 g/ha ([7]; Triticum aestivum, post-emergence, 504 h, 149 g ai/ha, read-out: Visual Gorowth Reduction (%) 21 days After Application TRZSS): 85 to 94% | GR20 TRZSS [7]: 1 g ai/ha

From US9113629B2, “4-amino-6-(4-substituted-phenyl)-picolinates and 6-amino-2-(4-substituted-phenyl)-pyrimidine-4-carboxylates and their use as herbicides” (DOW AGROSCIENCES LLC, priority 2013, dated 2015)
